Assay results: BindingDB's records for doi:10.1016/S0960-894X(00)80678-2 (1993)
pKi: −log10 of the molar value. Non-standard residues stand in square brackets, D forms with d. Residues, ends and D or L forms follow the SMILES beside them. *: point of attachment. 1Nal = N[C@@H](Cc1cccc2ccccc12)C(=O)O; Boc = CC(C)(C)OC(=O)*

How the values were obtained:
[1] = target: Gastrin/cholecystokinin type B receptor (Cavia porcellus); test: Tested for the inhibition of [3H]pCCK-8 binding to Cholecystokinin type B receptor in guinea pig brain
[2] = target: Gastrin/cholecystokinin type B receptor (Cavia porcellus); test: as above; remark: listed apart in the source

Work on CCCC[C@@H](NC(=O)CC(=O)N[C@@H](Cc1c[nH]c2ccccc12)C(=O)N(C)[C@@H](CCCC)C(=O)N[C@@H](CC(=O)O)C(=O)N[C@@H](Cc1ccccc1)C(N)=O)NC(=O)[C@H](Cc1ccc(OS(=O)(=O)O)cc1)NC(=O)OC(C)(C)C [Boc-Tyr(SO3Na)-gNle-mGIy-Trp-(N-Me)Nle-Asp-Phe-NH2] yielded a pKi [1] of 9.82.
Work on CC(C)(C)OC(=O)N[C@@H](Cc1c[nH]c2ccccc12)C(=O)N[C@@H](Cc1ccccc1)C(=O)N[C@@H](CC(=O)O)C(=O)N[C@@H](Cc1cccc2ccccc12)C(N)=O [Boc-Trp-Phe-Asp-1Nal-NH2] (Boc-WFD[1Nal]-NH2) yielded a pKi [2] of 7.15.
With CCCC[C@@H](NC(=O)CC(=O)N[C@@H](Cc1c[nH]c2ccccc12)C(=O)N(C)[C@@H](CCCC)C(=O)N[C@@H](CC(=O)O)C(=O)N[C@@H](Cc1ccccc1)C(N)=O)NC(=O)[C@H](Cc1ccc(CS(=O)(=O)O)cc1)NC(=O)OC(C)(C)C [Boc-Phe(CH2-SO3Na)-gNle-mCIy-Trp-(N-Me)Nle-Asp-Phe-NH2] the pKi [2] was 9.34.
